What was measured:
[1] = system: control Drosophila S2 cells; experiment: Cytokinesis / multinucleation assay in control Drosophila S2 cells; type: cell-based; conditions: 50 μM, 24 hours
Protocol: (§1) Drosophila S2 cells were grown in Schneider's Drosophila medium complemented with FBS, Penicillin and Streptomycin (Invitrogen). […] Cells were fixed and labelled for F-Actin (red) and DNA (blue). Images are shown in FIGS. 1(a) to 1(c) in which stars mark multinucleated cells. The histogram of FIG. 2 represents the percentage of multinucleated cells quantified following the indicated treatments. Each P-values were calculated against dOCRL dsRNA treated cells.

[2] = system: dOCRL dsRNA treated Drosophila S2 cells; experiment: Cytokinesis / multinucleation assay in dOCRL dsRNA treated Drosophila S2 cells; type: cell-based; conditions: dOCRL depleted S2 cells, 50 μM, 24 hours
Protocol: as §1

[3] = system: renal epithelial cells from a Lowe syndrome patient; experiment: Abscission assay (time-lapse) in renal epithelial cells from a Lowe syndrome patient; type: cell-based, human; conditions: 25 μM, 60 hours time-lapse recording
Protocol: (§2) Further tests were carried out using human cellular models for the Lowe syndrome.
In this experiment, normal renal epithelial cells from a donor not mutated in OCRL1 and renal epithelial cells from a Lowe syndrome patient were grown in DMEM/F12 (Gibco BRL) supplemented with 10% fetal bovine serum, ITS supplemented, 4 pg/mL triiodothyronine, 36 ng/mL dexamethasone, 10 ng/ml EGF, 100 U/mL penicillin/streptomycin and 2 mM glutamine at 33° C.
Cell divisions were recorded by time-lapse microscopy using a Nikon Eclipse Ti Inverted Microscope. The curves represent the cumulative distribution of the abscission times in the indicated cell populations (see FIG. 3). […] Comparatively, abscission delay observed in Lowe patient cells was not corrected by treatment with o-3M3FBS.

[4] = system: normal renal epithelial cells from a donor not mutated in OCRL1; experiment: Abscission assay (time-lapse) in normal renal epithelial cells; type: cell-based, human; conditions: 25 μM, 60 hours time-lapse recording
Protocol: Further tests were carried out using human cellular models for the Lowe syndrome. […] In this experiment, normal renal epithelial cells from a donor not mutated in OCRL1 and renal epithelial cells from a Lowe syndrome patient were grown in DMEM/F12 (Gibco BRL) supplemented with 10% fetal bovine serum, ITS supplemented, 4 pg/mL triiodothyronine, 36 ng/mL dexamethasone, 10 ng/ml EGF, 100 U/mL penicillin/streptomycin and 2 mM glutamine at 33° C. […] Cell divisions were recorded by time-lapse microscopy using a Nikon Eclipse Ti Inverted Microscope. The curves represent the cumulative distribution of the abscission times in the indicated cell populations (see FIG. 3). […] Comparatively, abscission delay observed in Lowe patient cells was not corrected by treatment with o-3M3FBS.

[5] = system: OCRL1-depleted HeLa cells; experiment: Abscission assay (time-lapse) in OCRL1-depleted HeLa cells; type: cell-based, human; conditions: OCRL1 siRNA-depleted HeLa cells, 25 μM, 60 hours time-lapse recording, compared to DMSO alone
Protocol: as §2
Human HeLa epithelial cells were grown in DMEM medium (Gibco BRL) supplemented with 10% fetal bovine serum, 100 U/ml penicillin/streptomycin and 2 mM glutamine at 37° C. HeLa cells were depleted in OCRL1 by transfecting control siRNAs (5′-CGUACGCGGAAUACUUCGA-3′) or OCRL1 RNAi (5′-GAAAGGAUCAGUGUCGAUA-3′) specific siRNAs for 72 h before imaging using HiPerFect reagents (Qiagen).
Cell divisions were recorded by time-lapse microscopy using a Nikon Eclipse Ti Inverted Microscope. The curves represent the cumulative distribution of the abscission times in the indicated cell populations (see FIG. 5).

[6] = system: wildtype zebrafish embryos; experiment: Pronephric uptake of Alexa 488-10 kDa dextran in wildtype zebrafish embryos; type: in vivo; conditions: wildtype embryos at 72 hpf, 5 μM in the water, assessed 2 hours after tracer injection
Protocol: (§3) Finally, to test whether activation of PLC rescues phenotypes induced by loss of OCRL1 in an in vivo context, a previously established Ocrl−/− mutant zebrafish model for Lowe syndrome was used (Ramirez I. B. et al., 2012, Hum. Mol. Genet., 21, 1744-59, Oltrabella F., et al., 2015, PLoS Genetics, 11(4):e1005058). Wild type fish were of AB background.
(§4) Lysine-fixable 10 kDa dextran labelled with Alexa 488 (Molecular Probes) was prepared in PBS at 2 μg/μl final concentration. Zebrafish embryos at 72 hpf (hours post fertilisation) were treated for 60 minutes with DMSO control (0.005% DMSO), 5 μM m-3M3FBS or 5 μM o-3M3FBS by addition to the water. Embryos were then anaesthetised with 0.2 mg/ml MS222 (Sigma) in chorion water, and the tracer Alexa 488-10 kDa dextran (green) was injected into the common cardinal vein using a glass micropipette PLI-90 Pico-Injector (Harvard Apparatus). Embryos were returned to the respective drug treatments and incubated at 29° C. Pronephric accumulation was assessed 2 hours after injection on whole mount embryos using a fluorescent dissecting stereomicroscope (Leica MZ10F). Statistical analysis was performed using the Pearson's chi-squared test with Prism software (Prism Software Corporation).

[7] = system: Ocrl−/− mutant zebrafish embryos; experiment: Pronephric uptake of Alexa 488-10 kDa dextran in Ocrl−/− mutant zebrafish embryos; type: in vivo; conditions: OCRL1 mutant embryos at 72 hpf, 5 μM in the water, assessed 2 hours after tracer injection
Protocol: as §3, §4

Structure (SMILES) | effect on cytokinesis (multinucleated cells) [1] | effect on cytokinesis failure / multi-nucleation rate [2] | correction of abscission delay [3] | effect on timing of abscission [4] | correction of abscission delay [5] | effect on renal (pronephric) uptake of tracer [6] | rescue of endocytosis in the renal tubule (pronephric uptake of tracer) [7]
Cc1cc(C)c(S(=O)(=O)Nc2cccc(C(F)(F)F)c2)c(C)c1 [m-3M3FBS, 2,4,6-trimethyl-N-(m-3-trifluoromethylphenyl) benzene sulfonamide] | did not perturb cytokinesis | prevented cytokinesis failure | fully corrected | not affected | showed correction of the abscission delay | no effect upon renal uptake | efficiently rescued endocytosis
Cc1cc(C)c(S(=O)(=O)Nc2ccccc2C(F)(F)F)c(C)c1 [o-3M3FBS, reference compound] | – | did not significantly modify the multi-nucleation rate | not corrected | – | no significant effect on abscission | no effect | no effect

From patent publication US20200306213A1, “COMPOUNDS FOR USE IN THE TREATMENT OR PREVENTION OF LOWE SYNDROME OR DENT DISEASE AND METHODS THEREFOR” (Université de Montréal, priority 2017, published 2020)
